Measurements as given in patent publication US9150592B2, “Heterocyclic nuclear hormone receptor modulators” (AbbVie Inc., priority 2012, dated 2015).
pIC50: −log10 of the molar value.

Key:
[1] = test system: IL-6 in A549 cells stimulated with IL-1β; test: A549 Cell Assay to Measure Inflammation Markers (inhibition of IL-1β-induced IL-6); type: cell-based; details: A549 Cell Assay to Measure Inflammation Markers; intrinsic activity, Emax class ranges
Description: A549 Cell Assay to Measure Inflammation Markers
Further dilution (1:250) of compound was made into assay medium and 50 μL/well diluted drug or DMSO/media control was applied to cells. After a 1 h pre-incubation in a temperature, CO2, and humidity controlled incubator, set to 37° C., 50 μL/well of 4 ng/mL IL-1β diluted in assay media, was applied to cultures. Assay plates, with a final volume of 200 μL/well and final concentrations of 0.1% DMSO and 1 ng/mL IL-1β were returned to incubator for a […] incubation period. Next, plates were spun at 183 g (1000 rpm in Beckman/Coulter Allegra 6KR centrifuge) for 10 min. Cell-free supernatant (150 μL/well) was collected and IL-6 was measured by MSD kit, following protocol of manufacturer, and using MSD SECTOR Imager 6000 instrument. […] Results were represented as IC50 and Emax values.

[2] = molecular target: T1, Glucocorticoid Receptor (GR) (Homo sapiens, UniProt P04150); test: GR Fluorescence Polarization Assay (PolarScreen Glucocorticoid Receptor Competitor Assay, Red); details: IC50 class ranges, read-out: GR binding
T1 construct: purchased Invitrogen P2893
T1 sequence (P04150 1-777): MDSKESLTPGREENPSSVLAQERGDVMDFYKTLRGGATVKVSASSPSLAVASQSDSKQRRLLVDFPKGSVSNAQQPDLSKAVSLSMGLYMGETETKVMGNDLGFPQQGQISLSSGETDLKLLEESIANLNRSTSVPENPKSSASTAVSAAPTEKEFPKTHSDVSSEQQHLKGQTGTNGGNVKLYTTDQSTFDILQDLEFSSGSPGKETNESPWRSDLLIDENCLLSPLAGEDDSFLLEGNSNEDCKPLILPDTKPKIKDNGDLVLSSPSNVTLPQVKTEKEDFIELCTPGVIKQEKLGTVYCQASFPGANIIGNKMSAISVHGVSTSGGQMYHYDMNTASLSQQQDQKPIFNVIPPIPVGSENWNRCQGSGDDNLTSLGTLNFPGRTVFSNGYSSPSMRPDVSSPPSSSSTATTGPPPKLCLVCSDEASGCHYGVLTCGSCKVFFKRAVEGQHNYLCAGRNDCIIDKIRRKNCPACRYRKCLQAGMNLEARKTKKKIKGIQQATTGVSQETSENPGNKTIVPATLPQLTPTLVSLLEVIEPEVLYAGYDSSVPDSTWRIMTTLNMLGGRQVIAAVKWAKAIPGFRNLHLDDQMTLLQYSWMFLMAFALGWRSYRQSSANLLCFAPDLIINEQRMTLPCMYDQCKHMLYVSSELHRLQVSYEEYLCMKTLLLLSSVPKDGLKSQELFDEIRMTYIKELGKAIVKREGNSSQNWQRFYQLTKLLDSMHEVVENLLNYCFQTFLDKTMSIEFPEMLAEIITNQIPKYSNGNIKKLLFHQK
Description: GR Fluorescence Polarization Assay
Fluorescence polarization assays were carried out using the PolarScreen™ Glucocorticoid Receptor Competitor Assay, Red from Invitrogen (P2893). The assay buffer was prepared according to the manufacturer's protocol and used to dilute the fluorescent glucocorticoid and GR. Compounds were prepared and serial diluted 1:4 in DMSO. Compound, fluorescent glucocorticoid and GR were added in a final volume of 20 μL and incubated overnight at 4° C. Fluorescent polarization was measured on the PerkinElmer Envision®.

Row | SMILES | pIC50 [2] | A549 Emax [1]
1 | Cc1cc(Cl)ccc1C1SCCNc2c1c(-c1ccccn1)nn2C (single isomer, unassigned) [(4S)-4-(4-chloro-2-methyl-phenyl)-1-methyl-3-(2-pyridyl)-4,6] | – | B (a compound with Emax>60%)
2 | Cc1nn(C)c2c1C(c1cccnc1)SCCN2 (centres unmarked) [D.99] | < 5.00 | –
3 | Cc1ccc(Oc2ccc(C3SCCNc4c3c(C)nn4C)cc2)cc1 (centres unmarked) [D.75] | 5.00 to 6.00 | –
4 | Cn1nc(-c2ccccn2)c2c1NCCSC2c1ccc(-c2cncc(S(C)(=O)=O)c2)cc1Cl (centres unmarked) [U.1, 4-(2-Chloro-4-(5-(methylsulfonyl)pyridin-3-yl)phenyl)-1-methyl-3-(pyridin-2-yl)-4,6,7,8-tetrahydro-1H-pyrazolo[3,4-e][1,4]thiazepine tris(trifluoroacetate)] | 5.00 to 6.00 | –
5 | COC(=O)c1ccc(-c2nn(C)c3c2C(c2ccc(Cl)cc2Cl)SCCN3)nc1 (centres unmarked) [E.6, methyl 6-[4-(2,4-dichlorophenyl)-1-methyl-4,6,7,8-tetrahydropyrazolo[3,4-e][1,4]thiazepin-3-yl]pyridine-3-carboxylate] | 5.00 to 6.00 | –
6 | Cn1nc(-c2ccccn2)c2c1N(CC(=O)O)CCSC2c1ccc(Cl)cc1Cl (centres unmarked) | 5.00 to 6.00 | –
7 | Cc1cccc(-c2nn(C)c3c2C(c2ccc(Cl)cc2C)SCCN3)n1 (centres unmarked) | 5.00 to 6.00 | –
8 | Cn1nc(-c2ccccn2)c2c1NCCSC2c1ccc(C(C)(C)O)cc1Cl (centres unmarked) | 5.00 to 6.00 | –
9 | COc1cccc(C2SCCNc3c2c(C)nn3C)c1 (centres unmarked) [D.81] | 5.00 to 6.00 | –
10 | CCn1nc(-c2ccccn2)c2c1N[C@@H](C)CS[C@@H]2c1ccc(C(N)=O)cc1C (single isomer, unassigned) [M.45, 4-(1-ethyl-7-methyl-3-(pyridin-2-yl)-4,6,7,8-tetrahydro-1H-pyrazolo[3,4-e][1,4]thiazepin-4-yl)-3-methylbenzamide] | 5.00 to 6.00 | –
11 | Cn1nc(C(F)(F)F)c2c1NCCSC2c1ccc(Cl)cc1Cl (centres unmarked) [D.91] | 5.00 to 6.00 | –
12 | COc1ccc(C2SCCNc3c2c(C)nn3C)cc1 (centres unmarked) [D.97] | 5.00 to 6.00 | –
13 | Cc1nn(C)c2c1C(c1cc[nH]n1)SCCN2 (centres unmarked) [D.102] | < 5.00 | –
14 | Cn1nc(-c2ccc(C(N)=O)cn2)c2c1NCCSC2c1ccc(Cl)cc1Cl (centres unmarked) [I.5] | 5.00 to 6.00 | –
15 | COC(=O)c1ccc(C2SCCNc3c2c(-c2ccccn2)nn3C)cc1 (centres unmarked) [E.2, methyl 4-[1-methyl-3-(2-pyridyl)-4,6,7,8-tetrahydropyrazolo[3,4-e][1,4]thiazepin-4-yl]benzoate] | 5.00 to 6.00 | –
16 | Cn1nc(-c2ccccn2)c2c1NCCSC2c1ccc(-c2ccnnc2)cc1Cl (centres unmarked) [U.3] | 5.00 to 6.00 | –
17 | Cc1cc(C(=O)Nc2cccnc2C)ccc1C1SCC(CO)Nc2c1c(-c1ccccn1)nn2C (single isomer, unassigned) | 5.00 to 6.00 | –
18 | Cn1nc(-c2ccccn2)c2c1NCCSC2c1ccc(-c2cnc3nccnc3c2)cc1Cl (centres unmarked) [U.11] | 5.00 to 6.00 | –
19 | Cc1cc(Br)ccc1C1CCC(=O)Nc2c1c(C)nn2C (centres unmarked) [AA.2] | 5.00 to 6.00 | –

The next lines start with results.

Row | pIC50 [2] | SMILES | A549 Emax [1]
20 | 5.00 to 6.00 | CCn1nc(-c2ccccn2)c2c1N[C@@H](C)CS[C@@H]2c1ccc(C#CCO)cc1C (single isomer, unassigned) [M.25, 3-(4-(1-ethyl-7-methyl-3-(pyridin-2-yl)-4,6,7,8-tetrahydro-1H-pyrazolo[3,4-e][1,4]thiazepin-4-yl)-3-methylphenyl)prop-2-yn-1-ol] | –
21 | 5.00 to 6.00 | Cc1cc(C(=O)Nc2cccnc2C)ccc1[C@H]1SC[C@@H](C)Nc2c1c(-c1ccncn1)nn2C (single isomer, unassigned) [M.60, 4-(1,7-dimethyl-3-(pyrimidin-4-yl)-4,6,7,8-tetrahydro-1H-pyrazolo[3,4-e][1,4]thiazepin-4-yl)-3-methyl-N-(2-methylpyridin-3-yl)benzamide] | –
22 | > 7.00 | Cc1nn(C)c2c1C(c1ccc(Cl)cc1)SC(CCO)CN2 (centres unmarked) [D.100] | –
23 | 6.00 to 7.00 | Cc1cc(C#CCCO)ccc1[C@H]1SC[C@H](C)Nc2c1c(-c1ccccn1)nn2C (single isomer, unassigned) [M.53, 4-(4-(1,7-dimethyl-3-(pyridin-2-yl)-4,6,7,8-tetrahydro-1H-pyrazolo[3,4-e][1,4]thiazepin-4-yl)-3-methylphenyl)but-3-yn-1-ol] | –
24 | 5.00 to 6.00 | Cn1nc(-c2ccc(C(C)(C)C)cc2)c2c1NCCSC2c1ccc(Cl)cc1Cl (centres unmarked) [D.88] | –
25 | 6.00 to 7.00 | Cn1nc(-c2ccccn2)c2c1NCCSC2c1ccc(-c2cncc(C#N)c2)cc1Cl (centres unmarked) [U.4] | –
26 | 5.00 to 6.00 | Cn1nc(-c2ccc(OC(F)(F)F)cc2)c2c1NCCSC2c1ccc(Cl)cc1Cl (centres unmarked) [D.95] | –
27 | 5.00 to 6.00 | Cc1cc(CCCO)ccc1[C@H]1SC[C@H](C)Nc2c1c(-c1ccccn1)nn2C (single isomer, unassigned) [M.49, 3-(4-(1,7-dimethyl-3-(pyridin-2-yl)-4,6,7,8-tetrahydro-1H-pyrazolo[3,4-e][1,4]thiazepin-4-yl)-3-methylphenyl)propan-1-ol] | –
28 | 5.00 to 6.00 | CNC(=O)c1cncc(-c2ccc(C3SCCNc4c3c(-c3ccccn3)nn4C)c(Cl)c2)c1 (centres unmarked) [U.8] | –
29 | 6.00 to 7.00 | Cn1nc(-c2ccc(Cl)c(Cl)c2)c2c1NCCSC2c1ccc(Cl)cc1Cl (centres unmarked) [D.89] | –
30 | 5.00 to 6.00 | CCn1nc(-c2ccccn2)c2c1N[C@H](C)CS[C@@H]2c1ccc(C#CCO)cc1C (single isomer, unassigned) [M.26, 3-(4-(1-ethyl-7-methyl-3-(pyridin-2-yl)-4,6,7,8-tetrahydro-1H-pyrazolo[3,4-e][1,4]thiazepin-4-yl)-3-methylphenyl)prop-2-yn-1-ol] | –
31 | 6.00 to 7.00 | Cc1cc(C#CCCO)ccc1[C@H]1SC[C@@H](C)Nc2c1c(-c1ccccn1)nn2C (single isomer, unassigned) [M.56, 4-(4-(1,7-dimethyl-3-(pyridin-2-yl)-4,6,7,8-tetrahydro-1H-pyrazolo[3,4-e][1,4]thiazepin-4-yl)-3-methylphenyl)but-3-yn-1-ol] | –
32 | 6.00 to 7.00 | CCn1nc(-c2ccccn2)c2c1N[C@@H](C)CS[C@H]2c1ccc(CCC(C)(C)N)cc1C [Q.1] | –
33 | 6.00 to 7.00 | Cn1nc(-c2ccccn2)c2c1NCCSC2c1ccc(-c2cnn(C3CCCCO3)c2)cc1Cl (centres unmarked) [U.6] | –
34 | > 7.00 | CCn1nc(-c2ccccn2)c2c1NC(=O)CCC2c1ccc(Br)cc1C (centres unmarked) [AA.3] | –
35 | 6.00 to 7.00 | Cn1nc(-c2ccccn2)c2c1NCCSC2c1ccc(-c2cnn(CCC(N)=O)c2)cc1Cl (centres unmarked) [U.18] | –
36 | 6.00 to 7.00 | Cn1nc(-c2ccccn2)c2c1NCCSC2c1ccc(-c2cnccc2C#N)cc1Cl (centres unmarked) [U.10] | –
37 | 6.00 to 7.00 | Cn1nc(-c2ccccn2)c2c1NCCSC2c1ccc(-c2cncc(C(=O)N3CCOCC3)c2)cc1Cl (centres unmarked) [U.12] | –
38 | 6.00 to 7.00 | CCn1nc(-c2ccccn2)c2c1N[C@H](C)CS[C@@H]2c1ccc(CCC(C)(C)O)cc1C (single isomer, unassigned) [M.38, 4-(4-(1-ethyl-7-methyl-3-(pyridin-2-yl)-4,6,7,8-tetrahydro-1H-pyrazolo[3,4-e][1,4]thiazepin-4-yl)-3-methylphenyl)-2-methylbutan-2-ol] | –
39 | 6.00 to 7.00 | Cn1nc(-c2ccccn2)c2c1NCCSC2c1ccc(-c2ccc(S(C)(=O)=O)nc2)cc1Cl (centres unmarked) [U.13] | –
40 | 6.00 to 7.00 | COC(=O)c1ccc(C2SC(C)(C)CNc3c2c(C)nn3C)c(C)c1 (centres unmarked) [E.4, methyl 3-methyl-4-(1,3,6,6-tetramethyl-7,8-dihydro-4H-pyrazolo[3,4-e][1,4]thiazepin-4-yl)benzoate] | –
41 | 6.00 to 7.00 | Cn1nc(-c2ccc(F)cc2F)c2c1NCCSC2c1ccc(Cl)cc1Cl (centres unmarked) [D.93] | –
42 | 6.00 to 7.00 | CCn1nc(-c2ccccn2)c2c1N[C@H](C)CS[C@@H]2c1ccc(C(N)=O)cc1C (single isomer, unassigned) [M.47, 4-(1-ethyl-7-methyl-3-(pyridin-2-yl)-4,6,7,8-tetrahydro-1H-pyrazolo[3,4-e][1,4]thiazepin-4-yl)-3-methylbenzamide] | –
43 | 6.00 to 7.00 | Cc1ccc(-c2nn(C)c3c2C(c2ccc(Cl)cc2Cl)SCCN3)cc1 (centres unmarked) [D.87] | –
44 | 6.00 to 7.00 | CCn1nc(-c2ccccn2)c2c1N[C@@H](C)CS[C@@H]2c1ccc(CCCO)cc1C (single isomer, unassigned) [M.33, 3-(4-(1-ethyl-7-methyl-3-(pyridin-2-yl)-4,6,7,8-tetrahydro-1H-pyrazolo[3,4-e][1,4]thiazepin-4-yl)-3-methylphenyl)propan-1-ol] | –
